# Assay: gradient 5% acetonitrile 3 min, to 50% in 2 min, to 85% in 15 min, held 3 min, 100 µL/min
# Conditions: column: Zorbax Extend-C18 2.1 x 50 mm; eluents: water / acetonitrile, 0.1% formic acid
# How it was run: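 Pure standards were run in mixtures of ~100 molecules by HPLC coupled to a quadrupole time-of-flight mass spectrometer. The column was a Zorbax Extend-C18 (2.1 × 50 mm, 1.8 μm) at 100 μL/min, with water and acetonitrile each containing 0.1% formic acid, in positive and negative ionization mode. Dead and dwell volumes were 40 μL and 900 μL. Retention time was taken from computationally picked adduct peaks, each manually inspected, with data collected over 3 months.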
row,Compound,RP-LC retention time [s]
1,CCOC(=O)Cn1c(=O)c2c(nc3n2CC(C)CN3c2cc(C)cc(C)c2)n(C)c1=O (stereo not drawn),1050
2,Fc1ccc(C2Cn3nnc(-c4nc(-c5ccc(OC(F)(F)F)cc5)no4)c3CO2)cc1 (stereo not drawn),1250
3,COc1ccc2[nH]c(=O)c(CCC(=O)NCCCN3CCCC3=O)cc2c1,592
4,Cc1ccc(NC(=O)C2CCN(S(=O)(=O)c3c(C)[nH]c(C)c3C(=O)N3CCCC3)CC2)cc1,723
5,COc1ccccc1-c1csc(NC(=O)c2sc(COc3cccc(C)c3)nc2C)n1,1250
6,Cc1ccc(Cl)cc1NC(=O)CSc1ccc(N2CCCC(C(=O)NC3CC3)C2)nn1 (stereo not drawn),698
7,C=C1C(=O)C23CC[C@@H]4C(C)(C(=O)OC)CCCC4(C)[C@@H]2CCC1(O)C3 (stereo partly drawn),902
8,CCCc1ccc(S(=O)(=O)Nc2ccc3nc(S(=O)(=O)CC)sc3c2)cc1,1020
9,CNC(=O)C1CCCN(c2nc3ncn(CC(=O)Nc4ccc(F)cc4F)c(=O)c3s2)C1 (stereo not drawn),635
10,CCOC(=O)c1cccc(NC(=O)N2CCc3cn(C)c4cccc(c34)C2)c1,1210
11,CCCCn1cnc2c(-c3ccccc3)cn(CC(=O)NC(C)CC)c2c1=O (stereo not drawn),985
12,O=C(Nc1ccc2c(c1)OCCO2)N1CCN(c2nc3cccnc3n(Cc3ccccc3)c2=O)CC1,1000
13,Cc1ccccc1-c1nnc(CSc2nnc(NC(=O)C(C)C)s2)o1,843
14,Cc1noc(-c2cccnc2N2CCCN(Cc3ccc(F)cc3)CC2)n1,634
15,Cc1nc(-c2csc(S(=O)(=O)N3CCCC(C(=O)NC4CCCCCC4)C3)c2)no1 (stereo not drawn),1000
16,CCc1ccc(C(=O)Nc2nnc(SCc3nnc(-c4ccccc4C)o3)s2)cc1,1080
17,Cc1ccc(NS(=O)(=O)c2cc(-c3[nH]ncc3C(=O)N3CCCC3)oc2C)cc1Cl,803
18,COc1ccc2c(c1)C1(CCN(C(=O)NCCc3ccccc3)C1)C(=O)N2 (stereo not drawn),750
19,Cc1noc(C)c1S(=O)(=O)N1CCC(n2c(C)cnc2-c2ccccc2)CC1,682
20,O=C(Nc1nccnc1C(=O)NCc1ccncc1)c1ccccc1,590
21,COc1ccc(-n2ncc3c(=O)n(Cc4nc(-c5ccc(C)cc5)no4)cnc32)cc1,1030
22,O=c1ccn(-c2cccc(F)c2)nc1-c1nc(-c2ccc(OCc3ccccc3)cc2)no1,1070

row,Compound,RP-LC retention time [s]
1,O=C(NCc1ccco1)C1CCN(c2nc3ccc(-c4cccnc4)nc3s2)CC1,644
2,O=C(NCCC1CCN(S(=O)(=O)c2ccc(F)cc2)CC1)Nc1ccc(F)cc1,909
3,Clc1ccccc1-c1nc(-c2ccncc2)no1,1040
4,O=C1Nc2ccc(I)cc2C1=Cc1cc(Br)c(O)c(Br)c1,1090
5,CNC(=O)c1ccc(-c2nc3cc(NS(=O)(=O)c4ccc(C)cc4C)ccc3n2C)cc1,657
6,Cc1ccc(NC(=O)C2CCN(S(=O)(=O)c3ccc4c(c3)sc(=O)n4C(C)C)CC2)nc1,794
7,COc1ccc(-c2nnc(-c3nc(N4CCC5(CC4)OCCO5)c4ccccc4n3)o2)cc1,936
8,Cc1nc(-c2ccc(C(=O)N(C)C)c(F)c2)no1,693
9,CC(Oc1c(Cl)cccc1Cl)C1=NCCN1 (stereo not drawn),622
10,O=C(Nc1nccs1)C1CCN(C(=O)c2cc(-c3ccccc3)on2)CC1,732
11,Cn1c(=O)c(-c2ccc(C(=O)N3CCOCC3)cc2)nc2ccccc21,698
12,CC1(C)CCC[C@]2(C)[C@H]3CC(=O)O[C@]3(C)CC[C@@H]12,1220
13,Cc1nnc(-c2ccc3ccn(CC(=O)NCCCc4ccccc4)c3c2)o1,807
14,O=C(NCc1ccc(F)cc1)C1CCCN(c2nnc3ccc(Cl)cn23)C1 (stereo not drawn),749
15,COC(=O)CCc1sc(Nc2ccc(OC)cc2)nc1-c1ccc(OC)cc1,909
16,Cc1ccc(N2CC(c3noc(-c4cc(C)cc(C)c4)n3)CC2=O)cc1 (stereo not drawn),1200
17,CCOc1ccc(-c2noc(Cc3nc(-c4ccc(C)cc4)cs3)n2)cc1,1320
18,CN(Cc1cccs1)C(=O)NC(C)(C)C,817
19,CCCNC(=O)N1CCC2(CC1)C(=O)N(C)c1ccccc12,708
20,O=c1c2sccc2n(Cc2nc(-c3ccc(Br)cc3)no2)c(=O)n1-c1ccc(F)cc1,1100
21,CCOc1ccc(-c2ccnc3c(C(=O)Nc4cc(C)cc(C)c4)cnn23)cc1,1320
22,COc1cc(C(=O)Nc2nnc(SCc3nnc(-c4ccccc4C)o3)s2)cc(OC)c1OC,942

row,Compound,RP-LC retention time [s]
1,O=C(CN1C(=O)COc2ccccc21)N1CCSCC1,712
2,O=C(Nc1nc(CC(=O)N2CCN(C(=O)C3CCCO3)CC2)cs1)c1ccsc1 (stereo not drawn),606
3,COc1ccc(-c2ncc3c(=O)n(Cc4ccccc4C)c(=O)n(C)c3n2)cc1,679
4,CC(C)c1cc(=O)n(CC(=O)Nc2nc3c(s2)CCCC3)cn1,692
5,Cc1ccc(NC(=O)c2sc(-c3cn(C)c4ncccc34)nc2C)cc1F,1000
6,CCN1C(=O)CCC2(C(=O)Nc3ccc(OC)cc3OC)CCCC=C12 (stereo not drawn),789
7,O=C(Nc1nnc(C2CC(=O)N(c3ccc(F)cc3)C2)o1)c1ccc(Cl)cc1 (stereo not drawn),771
8,CC(C)C(=O)NCc1csc(C2CCN(C(=O)COc3ccccc3)CC2)n1,722
9,Cc1ccc(CNC(=O)c2ccc3c(c2)nc2n3CCN(C3CCCCC3)C2=O)cc1,839
10,Cc1ccc(C(=O)N2CCN(c3cc(-c4cccs4)[nH]n3)CC2)cc1C,808
11,Cc1ccc(S(=O)(=O)Nc2cc(C(=O)O)ccc2N2CCN(c3ccccn3)CC2)cc1,673
12,CNC(=O)c1cn(-c2ccc(SCC(=O)NCc3ccc4c(c3)OCO4)nn2)cn1,642
13,CCn1nccc1C(=O)NCCn1c(=O)n(Cc2ccc(F)cc2)c2cccnc21,729
14,Cc1nn(CC(=O)N2CCCC2)c(=O)c2nc(-c3ccccc3)sc12,756
15,CCc1cc(-c2csc(S(=O)(=O)N(Cc3ccccc3)C(C)C)c2)on1,1170
16,O=C(C1CCN(c2cnc(N3CCOCC3)nc2)CC1)N1CCCCC1,646
17,NC(=O)c1ncn2c(=O)n(CCCl)nnc12,645
18,Cc1cccc(/C=C/c2ccccc2)n1,664
19,Cn1cc(-c2ccccc2)cc1C(=O)N1CCN(C2CCCCC2)CC1,701
20,CCN1CCN(CCCNC(=O)C2CCCN(c3nc4cccnc4s3)C2)CC1 (stereo not drawn),552
21,CC(C)CNC(=O)N1CCC(CCOc2cccnc2)CC1,605
22,COc1ccc(N2CCN(C(=O)CN3CCN(Cc4cccc(Cl)c4)C3=O)CC2)cc1,784

row,Compound,RP-LC retention time [s]
1,CCOc1ccc(-c2csc(C)n2)cc1S(=O)(=O)NCc1ccccc1,996
2,CCc1ccc(-n2c(-c3ccc(Cl)cc3)cn3c4c(=O)n(C)c(=O)n(C)c4nc23)cc1,1150
3,Cc1ccc2c(C(=O)NCCc3cccs3)cc(NC(=O)C3CCC3)cc2n1,660
4,CCCNC(=O)C1CCN(c2ccc(SCC(=O)Nc3ccc(C(F)(F)F)cc3)nn2)CC1,728
5,CCOC(=O)Nc1c2ccccc2nc2ccccc12,660
6,Cc1ccccc1-c1nc2cnccn2c1NCCC(=O)NC(C)c1cccs1 (stereo not drawn),659
7,CCN(CCNS(=O)(=O)c1ccc2[nH]c(=O)ccc2c1)Cc1ccccc1,597
8,CCCN1C(=O)COc2ccc(-c3noc(-c4ccccc4Br)n3)cc21,1280
9,Cc1ccc(-c2ccc(-n3nc(C)c(S(=O)(=O)Nc4ccccc4)c3C)nn2)cc1,1060
10,O=C(NCCc1csc(-c2ccccc2)n1)C1CCN(C(=O)CCc2ccccc2)CC1,859
11,Cc1nc(-n2c(C)ccc2C)sc1C(=O)NC(C)C,954
12,c1ccc2c(c1)CCN(Cc1nc(-c3ccc(N4CCCC4)nc3)no1)C2,583
13,O=C(c1ccc(F)cc1)N1CCN(c2ccc(=O)n(-c3cccc(Cl)c3)n2)CC1,869
14,CN1CCN(c2nc(C(=O)NC3CCN(c4ccc(=O)n(C)n4)CC3)cs2)CC1,566
15,CC1=C(c2ccc(C)cc2)S(=O)(=O)N=C1N1CCCN(C(=O)CC2CCCC2)CC1,910
16,CCc1nc(-c2cccc(-c3noc(CNC(=O)Cc4ccc(Cl)cc4)n3)c2)cs1,1100
17,CC(C)NC(=O)C1CCCN(c2nc3ncn(CC(=O)NC4CCCCC4)c(=O)c3s2)C1 (stereo not drawn),666
18,CCN1CCN(C(=O)Nc2cccc(C(=O)OC)c2)c2cccnc21,612
19,Cc1ccc(CNC(=O)C2(C)Cn3nc(C(=O)NCCN4CCCCC4)cc3C(=O)N2C)cc1 (stereo not drawn),606
20,Cc1cc(C)cc(NS(=O)(=O)c2cc3n(c2)CCN(C)C3=O)c1,727
21,CN(C)C[C@@H]1CN(c2ncccn2)C[C@H]1NS(=O)(=O)Cc1ccc(F)cc1,590
22,CCCn1c(C2CCN(S(=O)(=O)c3ccccc3)C2)nc2cccnc21 (stereo not drawn),783

# Source: the METLIN SMRT retention time set (Domingo-Almenara et al. 2019)
